Assay results published in US9040568B2, “Pharmaceutical compositions for the treatment of pain” (AbbVie Inc., priority 2009, dated 2015).

Assays:
Format in all cases: in vivo, rat
[1] = system: MIA-induced osteoarthritis pain; assay: Monoiodoacetate-induced osteoarthritis (MIA-OA) pain model, compressive grip force
Experimental: Under light isoflurane (2-3%) anesthesia, MIA (3 mg) was unilateral intra-articularly injected into right hind knee joint in a volume of 50 μl as previously described (Chandran et al., 2009). Compressive grip force (CGF) was determined 20 days following MIA injection by recording the maximum compressive force exerted on the hind limb strain gauge setup, using a commercially available grip force measurement system (Columbus Instruments, Columbus, Ohio). In this assay, each rat was gently restrained and the hind paw was allowed to grasp the wire mesh frame (10×12 cm) attached to the strain gauge. The animal was then moved in a rostral-to-caudal direction until the grip was broken, and CGF reading expressed as g was recorded. Each rat was sequentially tested twice at approximately 2-3 min intervals to obtain an average raw CGF. To avoid confounding factor of body weight, CGF was converted into CGFbody following the formula: g (CGF)÷kg (body weight). CGF was assessed 30 min following i.p. compound administration. The vehicle control group was taken as 0%, whereas the age-matched naïve group was described as 100% (normal), the analgesic efficacy was expressed as the percentage return of CGFbody to normalcy vs. the naïve group: [(treatment-vehicle)/(naïve-vehicle)]×100%. Experiments were performed in animals 20 days following MIA knee joint injection, since this is the time point that maximal reduction of grip force observed in the time-course experiment (Chandran et al., 2009).

[2] = system: carrageenan-induced acute inflammatory thermal hyperalgesia; assay: Carrageenan model of acute inflammatory thermal hyperalgesia; conditions: for increase of the PWLcontra: vs vehicle
Experimental: Acute inflammatory thermal hyperalgesia were induced by injecting 100 μl of a 1% solution of λ-carrageenan (Sigma Chemical Co., St. Louis, Mo.) in physiological saline into the plantar surface of the right hind paw. Thermal hyperalgesia measured as paw withdrawal latency (PWL) was determined, using a commercially available thermal paw stimulator (UARDG, University of California, San Diego, Calif.) as described by Hargreaves et al. (Hargreaves et al., 1988). Rats were placed into individual plastic cubicles mounted on a glass surface maintained at 30° C., where a thermal stimulus, in the form of radiant heat emitted from a focused projection bulb, was then applied to the plantar surface of each hind paw. The stimulus current was maintained at 4.50±0.05 amp, and the maximum time of exposure was set at 20.48 s to limit possible tissue damage. The elapsed time until a brisk withdrawal of the hind paw from the thermal stimulus was recorded automatically using photodiode motion sensors. The right (carrageenan injected paw) and left hind paw of each rat was tested in 3 sequential trials at approximately 5 min intervals. Carrageenan-induced thermal hyperalgesia of paw withdrawal latency (PWLcarra) was calculated as the mean of the two shortest latencies. PWL was assessed 30 min (2 h after carrageenan injection) following i.p. compound administration. PWLcarra of the vehicle control group was taken as 0%, whereas the PWL of the contralateral side (PWLcontra) of the vehicle control group was taken as 100%, the analgesic efficacy was expressed as the percentage return of PWLcarra to PWLcontra.

[3] = system: post-operative pain (skin incision of the hind paw); assay: Incision model of postoperative pain (mechanical allodynia, von Frey)
Experimental: Paw incision was performed under isoflurane (2-3%) anesthesia and followed procedures previously described (Brennan et al., 1996). Briefly, the plantar aspect of the left hindpaw was placed through a hole in a sterile plastic drape. A 1-cm longitudinal incision was made through the skin and fascia, starting 0.5 cm from the proximal edge of the heel and extending towards the toes, the plantar muscle was elevated and injured longitudinally leaving the muscle origin and insertion points intact. After hemostasis with gentle pressure, the skin was apposed with 2 mattress sutures of 5-0 nylon. Mechanical allodynia was measured using calibrated von Frey filaments (Stoelting, Wood Dale, Ill.) as previously described (Chaplan et al., 1994) in all animals 2 h following surgery. Rats were placed into inverted individual plastic containers (20×12.5×20 cm) on top of a suspended wire mesh grid, and acclimated to the test chambers for 20 min. The von Frey filaments were presented perpendicularly to the plantar surface pointing towards the medial side of the incision (Brennan et al., 1996), and then held in this position for approximately 8 s with enough force to cause a slight bend in the filament. Positive responses included an abrupt withdrawal of the hind paw from the stimulus, or flinching behavior immediately following removal of the stimulus. A 50% paw withdrawal threshold (PWT) was determined using an up-down procedure (Dixon, 1980). Mechanical allodynia was assessed 30 min following i.p. compound administration.

[4] = Compound A 10 nmol/kg combined with Compound 1 (3.5 μmol/kg)
[5] = co-administration of Compound 1
[6] = Compound A 30 nmol/kg combined with Compound 1 (3.5 μmol/kg)
[7] = Compound A 100 nmol/kg combined with Compound 1 (3.5 μmol/kg)

## Clc1ccc(OC[C@H]2CCN2)cn1 [Compound A, 5-[(2R)-azetidin-2-ylmethoxy]-2-chloropyridine]
[1]; Compound A 0.3 nmol/kg combined with Compound 1 (3.5 μmol/kg)
  percent return of grip force to normalcy: 29±2%
[1]; Compound A 0.3 nmol/kg/kg in the presence of Compound 1 (3.5 μmol/kg)
  CGFbody: 657 ± 21 g
[1]; Compound A 1 nmol/kg combined with Compound 1 (3.5 μmol/kg)
  percent return of grip force to normalcy: 50±3%
[1]; Compound A 1 nmol/kg/kg in the presence of Compound 1 (3.5 μmol/kg)
  CGFbody: 855 ± 28 g
[1]; Compound A 3 nmol/kg combined with Compound 1 (3.5 μmol/kg)
  percent return of grip force to normalcy: 66±5%
[1]; Compound A 3 nmol/kg/kg in the presence of Compound 1 (3.5 μmol/kg)
  CGFbody: 971 ± 35 g
[1]; [4]
  percent return of grip force to normalcy: 92±6%
[1]; Compound A 10 nmol/kg/kg in the presence of Compound 1 (3.5 μmol/kg)
  CGFbody: 1243 ± 56 g
[1]; Compound A alone, 1 nmol/kg
  CGFbody: 575 ± 37 g
  percent return of grip force to normalcy: 20±4%
[1]; Compound A alone, 3 nmol/kg
  CGFbody: 717 ± 64 g
  percent return of grip force to normalcy: 35±6%
[1]; Compound A alone, 10 nmol/kg
  CGFbody: 992 ± 45 g
  percent return of grip force to normalcy: 65±5%
[1]; Compound A alone, 30 nmol/kg
  CGFbody: 1234 ± 37 g
  percent return of grip force to normalcy: 90±4%
[1]; Rattus norvegicus, Compound A alone, read-out: ED50 (return of grip force to normalcy)
  ED50: 0.0046 µmol/kg
[1]; [5]
  leftward shift in the DRC of Compound A: 5 fold
[2]; [4]
  percent reversal of thermal hyperalgesia: 31±13%
[2]; Compound A 10 nmol/kg i.p. in the presence of Compound 1 (3.5 μmol/kg)
  PWLcarra: 5.29 ± 0.91 s
[2]; [6]
  percent reversal of thermal hyperalgesia: 46±10%
[2]; Compound A 30 nmol/kg i.p. in the presence of Compound 1 (3.5 μmol/kg)
  PWLcarra: 6.35 ± 0.71 s
[2]; [7]
  percent reversal of thermal hyperalgesia: 84±12%
[2]; Compound A 100 nmol/kg i.p. in the presence of Compound 1 (3.5 μmol/kg)
  PWLcarra: 8.94 ± 0.79 s
[2]; Compound A alone, 100 nmol/kg
  percent reversal of thermal hyperalgesia: 28±5%
[2]; Compound A alone, 100 nmol/kg i.p.
  PWLcarra: 5.46 ± 0.36 s
[2]; Compound A alone, 300 nmol/kg
  percent reversal of thermal hyperalgesia: 74±9%
[2]; Compound A alone, 300 nmol/kg i.p.
  PWLcarra: 8.80 ± 0.65 s
[2]; Compound A and Compound 1 co-administered animals
  increase of the PWLcontra: not statistically significant
[2]; Compound A treated animals
  increase of the PWLcontra: not statistically significant
[2]; Rattus norvegicus, Compound A alone, read-out: ED50 (reversal of thermal hyperalgesia)
  ED50: 0.16 µmol/kg
[2]; [5]
  leftward shift in the DRC of Compound A: 5 fold
[3]; [4]
  percent reversal of mechanical allodynia: 22±14%
[3]; Compound A 10 nmol/kg in the presence of Compound 1 (3.5 μmol/kg)
  PWT: 5.0 ± 1.9 g
[3]; [6]
  percent reversal of mechanical allodynia: 54±16%
[3]; Compound A 30 nmol/kg in the presence of Compound 1 (3.5 μmol/kg)
  PWT: 9.2 ± 2.1 g
[3]; [7]
  percent reversal of mechanical allodynia: 85±10%
[3]; Compound A 100 nmol/kg in the presence of Compound 1 (3.5 μmol/kg)
  PWT: 13.1 ± 1.2 g
[3]; Compound A alone, 100 nmol/kg
  PWT: 6.0 ± 1.0 g
  percent reversal of mechanical allodynia: 25±8%
[3]; Compound A alone, 300 nmol/kg
  PWT: 12.0 ± 1.6 g
  percent reversal of mechanical allodynia: 75±12%
[3]; Rattus norvegicus, Compound A alone, read-out: ED50 (reversal of mechanical allodynia)
  ED50: 0.165 µmol/kg
[3]; [5]
  leftward shift in the DRC of Compound A: 6 fold

## N#Cc1cccc(-c2nc(-c3cccnc3)no2)c1 [Example 1, 3-(3-(pyridin-3-yl)-1,2,4-oxadiazol-5-yl)benzonitrile]
[1]; Compound 1 alone, 3.5 μmol/kg i.p.
  return of grip force normalcy: produced no return of grip force normalcy
[2]; Compound 1 alone, up to 35 μmmol/kg, i.p.
  alteration of PWLcarra: produced no alteration of PWLcarra
[3]; Compound 1 alone, up to 35 μmol/kg, i.p.
  alteration of PWT of the injured paw: produced no alteration of PWT
